# Laboratory results: patent publication US6630169B1, “Particulate delivery systems and methods of use” (priority 2000, dated 2003)
# Residues, ends and D or L forms follow the SMILES beside them. *: point of attachment. 5FAM = O=C1OC2(c3ccc(O)cc3Oc3cc(O)ccc32)c2ccc(C(=O)*)cc21
# Experiment: Bioavailability of fluorescent-labeled HA PulmoSpheres, plasma peptide by fluorometry
# Assay type: in vivo
# Details: mice
# Experimental: A formulation comprising fluoroscein-HA peptide (20% wt/wt) PulmoSpheres (f-HA-Pul) prepared as in Example IV was suspended in perflubron. Metofane anesthetized mice were inoculated intranasally (i.n.) with a […] volume of f-HA-Pul in perflubron, corresponding to […] of peptide dose. Blood samples were collected by ocular bleeding in heparin-treated tubes, the plasma was separated and the concentration of the peptide was measured by fluorometry. As a control, an intravenous i.v.) inoculation of […] of f-HA peptide in […] of sterile saline (n=4 for all groups) was used.
compound,measurement,setting,value
CC[C@H](C)[C@H](NC(=O)[C@H](CCC(=O)O)NC(=O)[C@H](Cc1ccccc1)NC(=O)[C@H](CCCNC(=N)N)NC(=O)[C@H](CCC(=O)O)NC(=O)[C@H](Cc1ccccc1)NC(=O)[C@H](CO)NC(=O)c1ccc2c(c1)C(=O)OC21c2ccc(O)cc2Oc2cc(O)ccc21)C(=O)N[C@@H](Cc1ccccc1)C(=O)N1CCC[C@H]1C(=O)N[C@@H](CCCCN)C(=O)N[C@@H](CCC(=O)O)C(=O)O [f-HA peptide] (5FAM-SFERFEIFPKE-OH; N-terminus and C-terminus assumed),total clearance (elimination via urine),,≤ 6 h
same,Tmax,"mouse, in vivo, i.n., f-HA-Pul in perflubron",20 min
same,bioavailability,"mouse, in vivo, i.n., f-HA-Pul in perflubron, vs i.v. f-HA peptide in saline, read-out: absolute bioavailability",~5%
